Measured values published in the supplement of paper PMC11061612.

Tests used:
Experiment in all cases: Bliss excess, mean over the matrix (fraction); higher = more synergy
[1] = system: KM-H2 (Hodgkin's Lymphoma)
Outline: (§1)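 Cell lines grown in DMEM/F12 or RPMI with 10% FBS were plated in 1536-well plates and held 24 hours at 37°C, 5% CO2 before 72 hours of exposure to two-drug dose matrices, with DMSO typically at 0.2%. CellTiter-Glo 2.0 luminescence gave viability, which was converted to inhibition. Vehicle wells were set to 0 and blank wells to 1. Combination Emax is the second-highest inhibition in the matrix, and Bliss excess is the observed combination effect minus the expected EA + EB − EA·EB, where EA and EB are the single-agent effects.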

[2] = system: HT-29 (Colorectal Carcinoma)
Outline: as §1

[3] = system: KARPAS-1106P (B-Cell Non-Hodgkin's Lymphoma)
Outline: as §1

[4] = system: NCI-H1694 (Small Cell Lung Carcinoma)
Outline: as §1

[5] = system: COR-L95 (Small Cell Lung Carcinoma)
Outline: as §1

[6] = system: SW1990 (Pancreatic Carcinoma)
Outline: as §1

[7] = system: CFPAC-1 (Pancreatic Carcinoma)
Outline: as §1

[8] = system: NCI-H2595 (Mesothelioma)
Outline: as §1

[9] = system: SW756 (Cervical Carcinoma)
Outline: as §1

[10] = system: RH-1 (Ewing's Sarcoma)
Outline: as §1

[11] = system: DMS-273 (Small Cell Lung Carcinoma)
Outline: as §1

[12] = system: NCI-H2369 (Mesothelioma)
Outline: as §1

[13] = system: J82 (Bladder Carcinoma)
Outline: as §1

[14] = system: SW780 (Bladder Carcinoma)
Outline: as §1

[15] = system: COR-L23 (Non-Small Cell Lung Carcinoma)
Outline: as §1

[16] = system: G-292-Clone-A141B1 (Osteosarcoma)
Outline: as §1

[17] = system: SW1088 (Low Grade Glioma)
Outline: as §1

[18] = system: MDA-MB-231 (Breast Carcinoma)
Outline: as §1

[19] = system: TE-5 (Esophageal Squamous Cell Carcinoma)
Outline: as §1

[20] = system: MFH-ino (Other Solid Carcinomas)
Outline: as §1

Cc1c2c(nn1C)CSCc1cc(n(C)n1)CSc1cc(c3ccccc3c1)OCCCc1c(C(=O)O)n(C)c3c-2c(Cl)ccc13 [AZD5991] + C1CN(CCC1(C(=O)N[C@@H](CCO)C2=CC=C(C=C2)Cl)N)C3=NC=NC4=C3C=CN4 [Capivasertib] (first compound max 1 µM, 7x7, partner max 3 µM)
Bliss excess [1]: -0.0052
Bliss excess [2]: -0.0114
Bliss excess [3]: 0.0188
Bliss excess [4]: -0.0142
Bliss excess [5]: 0.0071
Bliss excess [6]: -0.0314
Bliss excess [7]: 0.0021
Bliss excess [8]: 0.0093
Bliss excess [9]: -0.023
Bliss excess [10]: 0.0157
Bliss excess [11]: -0.0524
Bliss excess [12]: -0.012
Bliss excess [13]: -0.0046
Bliss excess [14]: -0.011
Bliss excess [15]: -0.0161
Bliss excess [16]: -0.0115
Bliss excess [17]: -0.0562
Bliss excess [18]: -0.0495
Bliss excess [19]: 0.0141
Bliss excess [20]: -0.0372

NC1(C(=O)N[C@@H](CCO)c2ccc(Cl)cc2)CCN(c2ncnc3[nH]ccc23)CC1 [Capivasertib] + CCN(CCO)CCCOc1ccc2c(Nc3cc(CC(=O)Nc4cccc(F)c4)[nH]n3)ncnc2c1 [AZD2811] (first compound max 10 µM, 7x7, partner max 1 µM)
Bliss excess [1]: -0.0195
Bliss excess [2]: -0.0137
Bliss excess [3]: 0.0426
Bliss excess [4]: 0.0503
Bliss excess [5]: -0.0075
Bliss excess [6]: -0.033
Bliss excess [7]: 0.0281
Bliss excess [8]: -0.0718
Bliss excess [9]: -0.0299
Bliss excess [10]: 0.0222
Bliss excess [11]: -0.0015
Bliss excess [12]: -0.0446
Bliss excess [13]: -0.0018
Bliss excess [14]: 0.015
Bliss excess [15]: -0.0446
Bliss excess [16]: 0.0116
Bliss excess [17]: -0.0088
Bliss excess [18]: -0.0154
Bliss excess [19]: -0.0283
Bliss excess [20]: -0.0542

Cc1c2c(nn1C)CSCc1cc(n(C)n1)CSc1cc(c3ccccc3c1)OCCCc1c(C(=O)O)n(C)c3c-2c(Cl)ccc13 [AZD5991] + C=CCn1c(=O)c2cnc(Nc3ccc(N4CCN(C)CC4)cc3)nc2n1-c1cccc(C(C)(C)O)n1 [AZD1775] (first compound max 1 µM, partner max 1 µM)
Bliss excess [1]: -0.0181
Bliss excess [2]: -0.0045
Bliss excess [3]: -0.011
Bliss excess [4]: -0.0247
Bliss excess [5]: -0.0637
Bliss excess [6]: -0.024
Bliss excess [7]: 0.0535
Bliss excess [8]: -0.0127
Bliss excess [9]: -0.013
Bliss excess [10]: -0.0575
Bliss excess [11]: -0.0476
Bliss excess [12]: 0.0049
Bliss excess [13]: -0.0372
Bliss excess [14]: 0.0046
Bliss excess [15]: -0.0079
Bliss excess [16]: -0.0178
Bliss excess [17]: -0.0307
Bliss excess [18]: -0.0812
Bliss excess [19]: 0.0264
Bliss excess [20]: 0.0604

NC1(C(=O)N[C@@H](CCO)c2ccc(Cl)cc2)CCN(c2ncnc3[nH]ccc23)CC1 [Capivasertib] + Cn1cnc2c(F)c(Nc3ccc(Br)cc3Cl)c(C(=O)NOCCO)cc21 [Selumetinib] (first compound max 10 µM, 7x7, partner max 10 µM)
Bliss excess [1]: -0.0084
Bliss excess [2]: -0.0119
Bliss excess [3]: 0.0759
Bliss excess [4]: -0.0078
Bliss excess [5]: -0.0359
Bliss excess [6]: 0.0535
Bliss excess [7]: 0.0351
Bliss excess [8]: -0.0454
Bliss excess [9]: -0.0177
Bliss excess [10]: 0.0148
Bliss excess [11]: -0.003
Bliss excess [12]: -0.0292
Bliss excess [13]: -0.021
Bliss excess [14]: 0.0066
Bliss excess [15]: 0.0071
Bliss excess [16]: -0.0056
Bliss excess [17]: 0.0342
Bliss excess [18]: -0.007
Bliss excess [19]: 0.0457
Bliss excess [20]: -0.0205

CN(CCO)CC[C@H](CSc1ccccc1)Nc1ccc(S(=O)(=O)NC(=O)c2ccc(N3CCC([C@@H](O)c4ccccc4-c4ccc(Cl)cc4)CC3)cc2)cc1S(=O)(=O)C(F)(F)F [AZD4320] + CN(C)CCCOc1ccc(-c2ccc3ncc4c(c3c2)n(C2CCOCC2)c(=O)n4C)cn1 [AZD0156] (first compound max 1 µM, 7x7, partner max 1 µM)
Bliss excess [1]: -0.0038
Bliss excess [2]: -0.0238
Bliss excess [3]: -0.0055
Bliss excess [4]: 0.0791
Bliss excess [5]: 0.0046
Bliss excess [6]: -0.0411
Bliss excess [7]: -0.0354
Bliss excess [8]: -0.0348
Bliss excess [9]: -0.0362
Bliss excess [10]: -0.024
Bliss excess [11]: -0.0199
Bliss excess [12]: -0.036
Bliss excess [13]: -0.0464
Bliss excess [14]: -0.0392
Bliss excess [15]: -0.0231
Bliss excess [16]: -0.015
Bliss excess [17]: -0.033
Bliss excess [18]: 0.0319
Bliss excess [19]: -0.0135
Bliss excess [20]: -0.059

CC1(C)CCC(CN2CCN(c3ccc(C(=O)NS(=O)(=O)c4ccc(NCC5CCOCC5)c([N+](=O)[O-])c4)c(Oc4cnc5[nH]ccc5c4)c3)CC2)=C(c2ccc(Cl)cc2)C1 [Venetoclax] + CCN(CCO)CCCOc1ccc2c(Nc3cc(CC(=O)Nc4cccc(F)c4)[nH]n3)ncnc2c1 [AZD2811] (first compound max 1 µM, 7x7, partner max 1 µM)
Bliss excess [1]: 0.0106
Bliss excess [2]: 0.0012
Bliss excess [3]: -0.0125
Bliss excess [4]: 0.0477
Bliss excess [5]: 0.0474
Bliss excess [6]: 0.0024
Bliss excess [7]: -0.024
Bliss excess [8]: -0.0146
Bliss excess [9]: -0.0292
Bliss excess [10]: -0.0548
Bliss excess [11]: 0.0016
Bliss excess [12]: -0.015
Bliss excess [13]: -0.014
Bliss excess [14]: -0.007
Bliss excess [15]: -0.0428
Bliss excess [16]: -0.0413
Bliss excess [17]: -0.0469
Bliss excess [18]: -0.013
Bliss excess [19]: -0.0318
Bliss excess [20]: -0.0239

COc1cccc2c1C(=O)c1c(O)c3c(c(O)c1C2=O)C[C@@](O)(C(=O)CO)C[C@@H]3O[C@H]1C[C@H](N)[C@H](O)[C@H](C)O1 [Doxorubicin] + Cc1cc2ncnn2cc1Nc1ncc2c(n1)n(C1CCOCC1)c(=O)n2C [AZD7648] (first compound max 1 µM, 7x7, partner max 10 µM)
Bliss excess [1]: 0.116
Bliss excess [2]: 0.0099
Bliss excess [3]: 0.0713
Bliss excess [4]: 0.12
Bliss excess [5]: 0.0084
Bliss excess [6]: -0.0224
Bliss excess [7]: 0.0253
Bliss excess [8]: 0.0084
Bliss excess [9]: 0.0541
Bliss excess [10]: 0.163
Bliss excess [11]: 0.0727
Bliss excess [12]: 0.029
Bliss excess [13]: 0.0106
Bliss excess [14]: 0.0082
Bliss excess [15]: 0.0351
Bliss excess [16]: -0.0023
Bliss excess [17]: 0.0309
Bliss excess [18]: -0.0124
Bliss excess [19]: -0.0229
Bliss excess [20]: 0.0216
